Assay results taken from ChEMBL document CHEMBL3526122, “Identification of UDP-glucuronosyltransferases responsible for the glucuronidation of darexaban, an oral factor Xa inhibitor, in human liver and intestine” (Drug Metab Dispos, 2012).

Tests used:
[1] = target: T1, UDP-glucuronosyltransferase 1A8 (Homo sapiens, UniProt Q9HAW9); test: Ratio of Ki to Km for human recombinant UGT1A8 expressed in baculovirus-infected insect cells; assay type: ADME; conditions: recombinant enzyme
T1 sequence (Q9HAW9 whole entry): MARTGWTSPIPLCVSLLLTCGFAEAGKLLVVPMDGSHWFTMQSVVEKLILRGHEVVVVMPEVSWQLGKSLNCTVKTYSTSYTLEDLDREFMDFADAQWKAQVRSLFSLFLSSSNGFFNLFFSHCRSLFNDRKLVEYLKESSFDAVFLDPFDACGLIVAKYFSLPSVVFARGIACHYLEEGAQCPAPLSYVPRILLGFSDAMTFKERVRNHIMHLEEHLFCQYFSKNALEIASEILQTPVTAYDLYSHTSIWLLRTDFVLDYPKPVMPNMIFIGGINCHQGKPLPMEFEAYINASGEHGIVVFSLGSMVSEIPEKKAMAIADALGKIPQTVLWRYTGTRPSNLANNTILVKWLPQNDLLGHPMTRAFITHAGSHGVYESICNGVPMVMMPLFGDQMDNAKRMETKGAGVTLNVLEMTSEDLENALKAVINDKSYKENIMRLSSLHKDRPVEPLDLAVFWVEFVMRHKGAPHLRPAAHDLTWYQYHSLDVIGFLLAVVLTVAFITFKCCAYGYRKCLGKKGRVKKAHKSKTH

[2] = Drug metabolism in human liver microsomes assessed as glucuronidation at 30 uM after 10 mins by LC-MS/MS analysis relative to vehicle-treated control in presence of propofol and UDPGA; assay type: ADME; conditions: with propofol, read-out: Drug metabolism
Liver microsome [3] = test: Intrinsic clearance in human liver microsomes assessed per mg of protein at 1 to 250 uM after 10 mins in presence of UDPGA; assay type: ADME
[4] = Drug metabolism in human intestinal microsomes assessed as glucuronidation per mg of protein after 5 mins by Michaelis-Menten plot analysis in presence of UDPGA; assay type: ADME, Intestine, Microsome
[5] = target: T2, UDP-glucuronosyltransferase 1A6 (Homo sapiens, UniProt P19224); test: Activity of human recombinant UGT1A6 expressed in baculovirus-infected insect cells assessed as enzyme-mediated glucuronidation per mg of protein after 10 mins in presence of UDPGA; assay type: ADME
T2 sequence (P19224 whole entry): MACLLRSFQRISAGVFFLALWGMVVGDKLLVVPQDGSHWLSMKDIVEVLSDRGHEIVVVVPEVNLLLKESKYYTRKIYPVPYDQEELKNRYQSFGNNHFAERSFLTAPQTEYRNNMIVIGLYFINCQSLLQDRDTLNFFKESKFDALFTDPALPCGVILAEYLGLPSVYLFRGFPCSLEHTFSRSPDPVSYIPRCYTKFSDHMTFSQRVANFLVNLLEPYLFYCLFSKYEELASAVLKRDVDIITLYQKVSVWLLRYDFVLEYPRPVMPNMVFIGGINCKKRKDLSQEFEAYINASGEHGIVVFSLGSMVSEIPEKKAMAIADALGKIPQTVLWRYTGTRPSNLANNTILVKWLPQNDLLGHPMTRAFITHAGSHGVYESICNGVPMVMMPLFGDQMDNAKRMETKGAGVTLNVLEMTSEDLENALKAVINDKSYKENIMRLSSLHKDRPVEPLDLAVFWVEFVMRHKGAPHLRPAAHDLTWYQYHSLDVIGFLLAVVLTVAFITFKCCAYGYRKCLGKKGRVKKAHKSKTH

[6] = target: T1, UDP-glucuronosyltransferase 1A8; test: Activity of human recombinant UGT1A8 expressed in baculovirus-infected insect cells assessed as intrinsic clearance for enzyme-mediated glucuronide formation per mg of protein at 1 to 250 uM after 10 mins in presence of UDPGA; assay type: ADME
Liver microsome [7] = test: Drug metabolism in human liver microsomes assessed as glucuronidation per mg of protein after 10 mins by Michaelis-Menten plot analysis in presence of UDPGA and 0.5% fatty acid free BSA; assay type: ADME
Liver microsome [8] = test: Drug metabolism in human liver microsomes assessed as glucuronidation per mg of protein after 10 mins by Michaelis-Menten plot analysis in presence of UDPGA and 2% fatty acid free BSA; assay type: ADME
Liver microsome [9] = test: Unbound intrinsic clearance in human liver microsomes assessed per mg of protein after 10 mins in presence of UDPGA and absence of fatty acid free BSA; assay type: ADME
Liver microsome [10] = test: Unbound intrinsic clearance in human liver microsomes assessed per mg of protein after 10 mins in presence of UDPGA and 0.5% fatty acid free BSA; assay type: ADME
Liver microsome [11] = test: Unbound intrinsic clearance in human liver microsomes assessed per mg of protein after 10 mins in presence of UDPGA and 2% fatty acid free BSA; assay type: ADME
[12] = target: T3, UDP-glucuronosyltransferase 1A9 (Homo sapiens, UniProt O60656); test: Activity of human recombinant UGT1A9 expressed in baculovirus-infected insect cells assessed as unbound intrinsic clearance for enzyme-mediated glucuronidation per mg of protein after 5 mins by Michaelis-Menten plot analysis in presence of UDPGA and absence of fatty acid free BSA; assay type: ADME
T3 sequence (O60656 whole entry): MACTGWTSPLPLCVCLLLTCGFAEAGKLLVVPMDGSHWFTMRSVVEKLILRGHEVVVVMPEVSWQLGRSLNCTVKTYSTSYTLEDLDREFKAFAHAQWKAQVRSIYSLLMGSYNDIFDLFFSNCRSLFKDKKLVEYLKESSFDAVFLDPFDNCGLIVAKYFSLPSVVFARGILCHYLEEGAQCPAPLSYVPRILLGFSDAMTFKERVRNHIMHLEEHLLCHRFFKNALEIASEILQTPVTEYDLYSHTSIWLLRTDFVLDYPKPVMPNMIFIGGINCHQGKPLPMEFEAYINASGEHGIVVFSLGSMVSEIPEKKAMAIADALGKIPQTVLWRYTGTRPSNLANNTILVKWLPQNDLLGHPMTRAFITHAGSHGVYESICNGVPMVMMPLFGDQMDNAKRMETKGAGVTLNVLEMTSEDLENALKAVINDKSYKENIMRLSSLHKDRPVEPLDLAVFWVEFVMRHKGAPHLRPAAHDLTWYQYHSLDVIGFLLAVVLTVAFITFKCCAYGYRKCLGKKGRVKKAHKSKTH

[13] = target: T3, UDP-glucuronosyltransferase 1A9; test: Activity of human recombinant UGT1A9 expressed in baculovirus-infected insect cells assessed as unbound intrinsic clearance for enzyme-mediated glucuronidation per mg of protein after 5 mins by Michaelis-Menten plot analysis in presence of UDPGA and 0.1% fatty acid free BSA; assay type: ADME
[14] = target: T3, UDP-glucuronosyltransferase 1A9; test: Activity of human recombinant UGT1A9 expressed in baculovirus-infected insect cells assessed as unbound intrinsic clearance for enzyme-mediated glucuronidation per mg of protein after 5 mins by Michaelis-Menten plot analysis in presence of UDPGA and 2% fatty acid free BSA; assay type: ADME
[15] = Drug metabolism in human liver microsomes assessed as glucuronidation at 30 uM after 5 mins by LC-MS/MS analysis relative to vehicle-treated control in presence of bilirubin and UDPGA; assay type: ADME; conditions: with bilirubin, read-out: Drug metabolism
[16] = Ratio of Km for drug metabolism in human liver microsomes to Km for human recombinant UGT-mediated drug metabolism; assay type: ADME; conditions: recombinant enzyme
[17] = Fraction unbound in human liver microsomes at 1 to 250 uM after 10 mins by ultrafiltration method in presence of 0.1% fatty acid free BSA; assay type: ADME
[18] = Fraction unbound incubation mixture containing human recombinant UGT1A9 at 1 to 250 uM after 10 mins by ultrafiltration method in presence of 0.5% fatty acid free BSA

**Q.** For `COc1ccc(C(=O)Nc2cccc(O)c2NC(=O)c2ccc(N3CCCN(C)CC3)cc2)cc1.O=C(O)CCC(=O)O`, which Ratio [1] is on record?
**A.** 30

**Q.** What about the activity at 10 min, 30 µM [2] of the same compound?
**A.** 9%

**Q.** And the CLint (Liver microsome [3])?
**A.** 8.71 µL/min/mg

**Q.** What about the Vmax [4] of the same compound?
**A.** 4.53 nmol/min/mg

**Q.** And the Drug metabolism [5]?
**A.** < 0.01 nmol/min/mg

**Q.** What about the clearance [6] of the same compound?
**A.** 51.5 µL/min/mg

**Q.** What about the Vmax (Liver microsome [7]) of the same compound?
**A.** 3.25 nmol/min/mg

**Q.** What about the Vmax (Liver microsome [8]) of the same compound?
**A.** 3.14 nmol/min/mg

**Q.** And the CL free (Liver microsome [9])?
**A.** 17.4 µL/min/mg

**Q.** What about the CL free (Liver microsome [10]) of the same compound?
**A.** 184 µL/min/mg

**Q.** What about the CL free (Liver microsome [11]) of the same compound?
**A.** 178 µL/min/mg

**Q.** And the CL free [12]?
**A.** 138 µL/min/mg

**Q.** What about the CL free [13] of the same compound?
**A.** 250 µL/min/mg

**Q.** And the CL free [14]?
**A.** 316 µL/min/mg

**Q.** And the activity at 5 min, 30 µM [15]?
**A.** 59.9%

**Q.** And the Ratio [16]?
**A.** 4.2

**Q.** What about the fraction unbound at 10 min, up to 250 µM [17] of the same compound?
**A.** 0.72

**Q.** And the Fu [18]?
**A.** 0.553
